# Measured values: patent US7973056B2, “Triazole derivative or salt thereof” (Fujifilm Finechemicals Co., Ltd, priority 2008, dated 2011)
# System: Candida albicans ATCC 44858
# Test: Antifungal activity test (in vitro), MIC
# Assay type: cell-based
# Details: ATCC44858
compound,measurement,value
"C[C@@H](N1CC=C(c2ccccn2)CC1)[C@](O)(Cn1cncn1)c1ccc(F)cc1F [I-3, (2R,3R)-2-(2,4-difluorophenyl)-3-(3′,6′-dihydro-2,4′-bipyridin-1′(2′H)-yl)-1-(1,2,4-triazol-1-yl)butan-2-ol]",MIC,1 µg/mL
